Where a SMILES comes first, the peptide text is derived from it.

Data set [1] has as its target T1, PDZ1 domain of PDZK1 (Mus musculus, UniProt Q9JIL4).
T1 construct: Recombinant wild-type PDZ1 domain (0.03 mM in 150 mM NaCl); made in house
T1 sequence (Q9JIL4 9-90 limits assumed): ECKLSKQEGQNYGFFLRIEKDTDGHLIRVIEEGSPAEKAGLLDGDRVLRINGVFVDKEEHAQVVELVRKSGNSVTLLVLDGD
As to the kind of experiment: Isothermal titration calorimetry (ITC), binding to recombinant PDZ1 domain of PDZK1. The conditions noted are these: VP-ITC microcalorimeter, 1.0 mM peptide titrated into 0.03 mM PDZ1, 150 mM NaCl, 25 mM Tris-pH 8.0, 0.5 mM TCEP, 20°C, triplicate, ORIGIN 7.0, read-out: Kd (binding affinity) to PDZ1. On the procedure: Expression and purification of recombinant proteins corresponding to PDZ1 domain 1(PDZ1) of PDZK1 and to full length PDZK1 has been described previously. Binding of synthetic peptides based on the C-terminus of the IP (Fig. 1) was measured using a VP-ITC microcalorimeter (GE Healthcare). Three individual peptides were used: Peptide 1 corresponded to the seven carboxy-terminal amino acids of mouse (m) IP, to which two N-terminal lysines (not part of the IP protein sequence) were added to increase peptide solubility (KK^411IAACSLC^417, ‘target peptide’); Peptide 2 consisted of an octapeptide corresponding to the carboxy-terminus of IP (K^407SEAIAAC^414) devoid of the 3 terminal amino acids (-aaX/-^415SLC^417) which would be removed by proteolytic cleavage following farnesylation. […] Titration curves were analyzed and Kd values determined using ORIGIN 7.0 software (Origin Lab) with baseline correction. […]
Figure 2 Isothermal titration calorimetric analysis of the binding of a C-terminal peptide from IP to the PDZ1 domain of PDZK1. […] Titration curves were analyzed and Kd values determined using ORIGIN 7.0 software. […]
(ITC needs no label: the signal is the heat of the interaction.)

Data set [2] concerns third PDZ domain (PDZ3) of PDZK1. The conditions noted are these: cited from earlier work. The text has this: We recently solved the structures of the interactions between the HDL receptor SR-BI with the first and with the third PDZ domains of PDZK1 by X-ray crystallography, [32]. […] The crystal structure described herein, analyzing the interaction between the carboxy-terminus of the I ...

Data set [3] concerns the target PDZ1 of PDZK1. The conditions noted are these: cited from earlier work. An excerpt:
PDZK1 is a multi-PDZ domain-containing adaptor protein known to play a role in the expression, localization and function of several cell surface receptors and ion channels. One of its molecular interactants is the prostacyclin receptor (IP), whose interaction with PDZK1 was recently described. […] These interactions involve a Class I type of binding typically seen for protein interactants with carbox ... || We recently solved the structures of the interactions between the HDL receptor SR-BI with the first and with the third PDZ domains of PDZK1 by X-ray crystallography, [32]. […] The crystal structure described herein, analyzing the interaction between the carboxy-terminus of the I ...

Data set [4] deals with T2, PDZK1 residues 7-106 (PDZ1 domain 7-86 with interdomain residues 87-106), the PDZK1 portion of the PDZ1-IP … (mouse, UniProt Q9JIL4 7-106).
T2 construct: PDZK1 residues 7-106: PDZ1 (7-86) and interdomain residues 87-106; numbering of the intact murine PDZK1; Stood in the crystal joined on one chain with m8 (the chimera m6, with Gly-Ser at its N-terminus); written apart for the pair PDZ1 with the IP peptide; also called PDZ1 portion of the structure; source: E. coli JM109, purified, as part of the PDZ1-IP chimera; not shown: GST, N-terminal, cleaved
T2 sequence (looked up): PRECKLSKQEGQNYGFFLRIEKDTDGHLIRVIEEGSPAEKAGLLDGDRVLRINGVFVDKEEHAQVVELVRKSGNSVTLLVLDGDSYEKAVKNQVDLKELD
As to the kind of experiment: crystal structure; PDZ1-IP chimera at 1 mM, sitting drop vapor diffusion, 18°C, 0.1 M MES pH 6.5, 30% (w/v) PEG 300; 1.70 Å; the IP peptide of one molecule binds the PDZ1 of the adjacent molecule. The conditions noted are these: both partners purified.

For data set [5], the target named is T3, recombinant full-length PDZK1 (mouse, UniProt Q9JIL4 1-519).
T3 construct: PDZK1, full length, with PDZ1-PDZ4; source: recombinant, purified
T3 sequence (looked up): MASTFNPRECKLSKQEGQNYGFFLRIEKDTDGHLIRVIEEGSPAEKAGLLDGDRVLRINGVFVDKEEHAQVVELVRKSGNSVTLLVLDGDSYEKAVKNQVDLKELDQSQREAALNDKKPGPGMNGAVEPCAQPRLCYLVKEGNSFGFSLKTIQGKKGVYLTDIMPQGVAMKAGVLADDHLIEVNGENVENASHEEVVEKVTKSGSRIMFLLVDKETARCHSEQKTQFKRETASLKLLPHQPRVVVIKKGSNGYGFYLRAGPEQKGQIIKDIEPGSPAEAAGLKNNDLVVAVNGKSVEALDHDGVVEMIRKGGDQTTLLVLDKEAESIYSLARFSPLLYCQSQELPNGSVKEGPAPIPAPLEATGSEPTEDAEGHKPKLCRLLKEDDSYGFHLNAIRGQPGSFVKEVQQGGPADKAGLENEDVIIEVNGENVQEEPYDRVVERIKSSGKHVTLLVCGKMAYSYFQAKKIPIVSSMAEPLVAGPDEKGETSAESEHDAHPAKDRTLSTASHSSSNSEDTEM
The data set is described as follows: ITC; 1.0 mM peptide injected in 10 µl aliquots into 0.03 mM PDZ1 or full length PDZK1 in the cell; 150 mM NaCl, 25 mM Tris pH 8.0, 0.5 mM TCEP, 20°C; VP-ITC. The conditions noted are these: both partners purified.

Data set [6] has as its target T4, recombinant protein corresponding to PDZ domain 1 (PDZ1) of PDZK1 (mouse).
T4 sequence (Q9JIL4 whole entry, looked up): T3 sequence (looked up)
The data set is described as above.

Data set [7] concerns the molecule itself. The data set is described as follows: crystal structure; PDZ1-IP chimera at 1 mM, sitting drop vapor diffusion, 18°C, 0.1 M MES pH 6.5, 30% (w/v) PEG 300; 1.70 Å; the IP peptide of one molecule binds the PDZ1 of the adjacent molecule.

As to `CC[C@H](C)[C@H](NC(=O)[C@H](CCCCN)NC(=O)[C@@H](N)CCCCN)C(=O)N[C@@H](C)C(=O)N[C@@H](C)C(=O)N[C@@H](CS)C(=O)N[C@@H](CO)C(=O)N[C@@H](CC(C)C)C(=O)N[C@@H](CS)C(=O)O` [Peptide 1] (H-KKIAACSLC-OH), the Kd in data set [1] turned out to be 8.2 µM.

Take “-VLQEAKL [SR-BI, scavenger receptor class B, type I]”: the “Affinity of SR-BI/PDZ3 interaction” value in data set [2] is “lower affinity”. Also, the Kd in data set [3] (PDZ1 of PDZK1, read-out: Kd of SR-BI binding to PDZ1) is 2.6 µM. Besides, the “Affinity of SR-BI/PDZ1 interaction” value in data set [3] is given as “high affinity”.

B1: seven carboxy-terminal residues of mouse IP (411IAACSLC417), the IP portion of the PDZ1-IP chimera (peptide)
peptide: IAACSLC
notes: prostacyclin receptor (IP), mouse, seven carboxy-terminal residues 411-417; also numbered -6 to 0 from the C-terminal residue; Stood in the crystal fused to the C-terminus of m7 (the chimera m6); also called IP target peptide; IP peptide; source: E. coli JM109, purified, as part of the PDZ1-IP chimera
In the case of B1, the binding result in data set [4] was “binds”.

B2: Peptide 1 (KK411IAACSLC417), seven carboxy-terminal amino acids of mouse IP with two added N-terminal lysines (peptide)
peptide: KKIAACSLC
notes: prostacyclin receptor (IP), mouse, seven carboxy-terminal residues 411-417; also called target peptide; C-terminal nonapeptide from IP; source: synthetic peptide, HPLC purified (Tufts University Core Facility)
In the case of B2, the figures for the Kd in data set [5] and in data set [6] were 60.2 ± 14.2 µM and 8.2 µM, respectively.

B3: chimeric PDZ1-IP recombinant protein (residues 7-106 of PDZK1 fused to the seven carboxy-terminal amino acids of mouse IP) (other)
chain: GSPRECKLSKQEGQNYGFFLRIEKDTDGHLIRVIEEGSPAEKAGLLDGDRVLRINGVFVDKEEHAQVVELVRKSGNSVTLLVLDGDSYEKAVKNQVDLKELDIAACSLC
notes: Gly-Ser dipeptide from the cloning vector (pGEX-4T-3), left at the N-terminus after thrombin digestion; PDZK1 residues 7-106: PDZ1 (7-86) and interdomain residues 87-106; numbering of the intact murine PDZK1; prostacyclin receptor (IP), mouse, seven carboxy-terminal residues 411-417; In the structure the chain is numbered 7Pro to 113Cys; also called PDZ1-IP chimera; PDZ1-IP target peptide …
As for B3, the binding result in data set [7] was “binds”.

By Kd is commonly meant the concentration at which binding is half-saturated.
